Two compounds from article PMC12416685, “3-O-acetylrubiarbonol B preferentially targets EGFR and MET over rubiarbonol B to inhibit NSCLC cell growth” (PLOS One, 2025) can be followed below.

What all share (type): biochemical
The target in one assay is AKT1 (Homo sapiens, UniProt P31749). In words: ADP-Glo in vitro kinase assay; relative activity left at […]. For orientation: In ADP-Glo the light output rises with the ADP produced.
A further assay concerns the target EGFR (Homo sapiens, UniProt P00533). Put plainly: ADP-Glo in vitro kinase assay.
The next assay has as its target MET (Homo sapiens, UniProt P08581). In words: ADP-Glo in vitro kinase assay.

pIC50: −log10 of the molar value.

Sequence of EGFR (P00533 25-1210): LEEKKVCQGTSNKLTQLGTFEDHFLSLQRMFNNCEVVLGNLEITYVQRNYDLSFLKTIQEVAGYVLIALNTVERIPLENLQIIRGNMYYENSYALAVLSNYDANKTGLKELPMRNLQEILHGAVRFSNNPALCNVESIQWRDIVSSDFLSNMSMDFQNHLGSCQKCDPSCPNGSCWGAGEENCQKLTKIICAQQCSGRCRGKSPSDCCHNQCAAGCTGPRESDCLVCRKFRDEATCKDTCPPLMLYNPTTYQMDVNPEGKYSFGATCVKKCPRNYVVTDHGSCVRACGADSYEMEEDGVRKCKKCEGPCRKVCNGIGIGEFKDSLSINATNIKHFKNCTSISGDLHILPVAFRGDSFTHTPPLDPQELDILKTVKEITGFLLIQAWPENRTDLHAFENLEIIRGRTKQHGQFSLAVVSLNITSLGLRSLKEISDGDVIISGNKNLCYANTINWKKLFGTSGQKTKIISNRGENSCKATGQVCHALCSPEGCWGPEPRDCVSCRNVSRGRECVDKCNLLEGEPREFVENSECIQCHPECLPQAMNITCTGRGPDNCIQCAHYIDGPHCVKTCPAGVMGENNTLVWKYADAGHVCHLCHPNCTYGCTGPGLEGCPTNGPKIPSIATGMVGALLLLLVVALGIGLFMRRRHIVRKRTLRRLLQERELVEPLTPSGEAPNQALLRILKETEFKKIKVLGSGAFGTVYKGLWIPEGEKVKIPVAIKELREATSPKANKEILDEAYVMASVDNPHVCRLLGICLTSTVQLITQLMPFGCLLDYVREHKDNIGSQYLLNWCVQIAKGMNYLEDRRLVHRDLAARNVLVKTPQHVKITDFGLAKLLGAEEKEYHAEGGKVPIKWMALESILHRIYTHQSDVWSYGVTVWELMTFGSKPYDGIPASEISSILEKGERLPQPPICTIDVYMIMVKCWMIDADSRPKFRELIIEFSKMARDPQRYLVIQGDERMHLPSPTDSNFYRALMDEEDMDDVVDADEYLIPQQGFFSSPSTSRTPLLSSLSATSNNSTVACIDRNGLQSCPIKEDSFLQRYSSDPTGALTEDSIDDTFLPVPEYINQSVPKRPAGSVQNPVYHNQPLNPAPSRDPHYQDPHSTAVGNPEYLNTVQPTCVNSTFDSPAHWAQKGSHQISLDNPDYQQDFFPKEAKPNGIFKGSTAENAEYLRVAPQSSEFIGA
Sequence of AKT1 (P31749 whole entry): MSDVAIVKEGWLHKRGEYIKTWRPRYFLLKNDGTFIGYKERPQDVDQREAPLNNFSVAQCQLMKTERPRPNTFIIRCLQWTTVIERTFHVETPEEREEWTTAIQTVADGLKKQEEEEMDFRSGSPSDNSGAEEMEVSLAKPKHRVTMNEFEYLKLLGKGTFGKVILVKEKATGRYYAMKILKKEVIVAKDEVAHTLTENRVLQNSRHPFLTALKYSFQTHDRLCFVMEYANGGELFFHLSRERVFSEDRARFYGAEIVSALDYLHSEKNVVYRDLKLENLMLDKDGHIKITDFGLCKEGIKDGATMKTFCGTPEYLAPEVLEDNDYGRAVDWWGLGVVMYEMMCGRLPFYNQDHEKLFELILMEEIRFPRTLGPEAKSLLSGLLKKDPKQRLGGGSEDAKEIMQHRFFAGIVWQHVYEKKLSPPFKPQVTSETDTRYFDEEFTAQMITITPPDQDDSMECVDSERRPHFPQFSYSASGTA
Sequence of MET (P08581 25-307): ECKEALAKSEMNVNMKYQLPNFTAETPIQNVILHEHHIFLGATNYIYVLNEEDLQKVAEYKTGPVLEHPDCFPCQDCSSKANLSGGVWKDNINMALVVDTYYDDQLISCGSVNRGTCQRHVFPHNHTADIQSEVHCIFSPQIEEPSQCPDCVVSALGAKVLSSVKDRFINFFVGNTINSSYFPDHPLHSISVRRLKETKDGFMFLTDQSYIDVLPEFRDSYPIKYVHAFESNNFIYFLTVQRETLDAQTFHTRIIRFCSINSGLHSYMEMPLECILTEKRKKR
Sequence of MET (P08581 308-1390): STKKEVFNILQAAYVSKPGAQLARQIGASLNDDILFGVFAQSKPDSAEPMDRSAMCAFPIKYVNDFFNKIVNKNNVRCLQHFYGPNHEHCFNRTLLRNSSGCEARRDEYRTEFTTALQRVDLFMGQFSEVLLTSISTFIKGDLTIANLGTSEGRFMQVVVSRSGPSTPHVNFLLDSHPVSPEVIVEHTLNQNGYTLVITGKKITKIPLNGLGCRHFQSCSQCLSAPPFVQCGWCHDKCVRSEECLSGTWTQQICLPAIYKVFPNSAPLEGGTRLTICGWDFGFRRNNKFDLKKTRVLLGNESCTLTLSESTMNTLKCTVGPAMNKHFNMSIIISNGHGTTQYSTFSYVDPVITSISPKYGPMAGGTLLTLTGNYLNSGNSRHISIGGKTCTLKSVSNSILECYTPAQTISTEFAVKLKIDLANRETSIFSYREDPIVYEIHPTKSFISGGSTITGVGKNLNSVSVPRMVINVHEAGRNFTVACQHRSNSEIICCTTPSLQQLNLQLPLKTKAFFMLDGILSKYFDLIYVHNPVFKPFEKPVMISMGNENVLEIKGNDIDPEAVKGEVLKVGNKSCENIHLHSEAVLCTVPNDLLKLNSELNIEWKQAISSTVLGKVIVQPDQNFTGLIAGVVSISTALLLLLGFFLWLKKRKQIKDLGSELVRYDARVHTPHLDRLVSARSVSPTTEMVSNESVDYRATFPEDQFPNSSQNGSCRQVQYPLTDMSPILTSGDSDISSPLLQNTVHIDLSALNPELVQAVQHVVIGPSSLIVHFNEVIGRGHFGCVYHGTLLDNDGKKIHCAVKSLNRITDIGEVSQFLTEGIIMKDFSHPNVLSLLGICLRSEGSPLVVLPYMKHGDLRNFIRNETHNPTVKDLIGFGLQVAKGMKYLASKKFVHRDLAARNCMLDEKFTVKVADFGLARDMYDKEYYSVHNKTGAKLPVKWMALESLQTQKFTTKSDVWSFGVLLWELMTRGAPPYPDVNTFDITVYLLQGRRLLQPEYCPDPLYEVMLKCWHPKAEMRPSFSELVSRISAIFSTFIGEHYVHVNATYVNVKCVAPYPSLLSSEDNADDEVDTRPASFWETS

Broadly, the pIC50 is the negative decadic logarithm of the IC50, by convention in mol/L. Lower therefore signals a large IC50. For the compound `CC(=O)O[C@H]1CC[C@]2(C)C3=CC[C@]4(C)[C@H]5[C@H](O)C[C@@H](C(C)C)[C@]5(C)CC[C@@]4(C)[C@@H]3[C@@H](O)C[C@H]2C1(C)C` [ARu-B, 3-O-acetylrubiarbonol B], the activity at 8 µM at AKT1 amounted to 58%. The pIC50 on EGFR is 5.52; against MET, 5.77.
With `CC(C)[C@@H]1C[C@@H](O)[C@H]2[C@@]1(C)CC[C@@]1(C)[C@H]3C(=CC[C@]21C)[C@@]1(C)CC[C@H](O)C(C)(C)[C@@H]1C[C@@H]3O` [Ru-B, rubiarbonol B], the activity at 8 µM on AKT1 was 67.1%. Besides, the pIC50 against EGFR is 5.12; against MET, 5.38.
